# Measurements: US20070287844A1, “Novel Crystal of N-[3-(Formylamino)-4-Oxo-6-Phenoxy-4h-Chromene-7-Yl] Methanesulfonamide” (Toyama Chemical Co., Ltd., priority 2003, published 2007)
# Test: Influence of humidity: water content of crystals after standing at controlled relative humidity
# Type: physicochemical
# Details: 7 days, 25° C.; for Change of water content with rising relative humidity: 22 to 93% RH
# Protocol: Test Example 1 Influence of Humidity After being allowed to stand the compounds of the present invention (T-614β, T-614γ and T-614 hydrate) and the compound disclosed as Example 5 in Japanese Patent Laid-Open No. 5-97840 (T-614α) under the relative humidity 22, 51, 75 and 93% RH for 7 days at 25° C., the water content of each crystal was measured.
SMILES,Change of water content with rising relative humidity,Stability under a high humidity condition,Water content (%) (relative humidity 22% RH),Water content (%) (relative humidity 51% RH),Water content (%) (relative humidity 75% RH),Water content (%) (relative humidity 93% RH)
"CS(=O)(=O)Nc1cc2occ(NC=O)c(=O)c2cc1Oc1ccccc1 [T-614 hydrate, N-[3-(formylamino)-4-oxo-6-phenoxy-4H-chromen-7-yl]methanesulfonamide]",almost kept unchanged,stable under a high humidity condition,4.09,4.15,4.08,4.03
"CS(=O)(=O)Nc1cc2occ(NC=O)c(=O)c2cc1Oc1ccccc1 [T-614β, N-[3-(formylamino)-4-oxo-6-phenoxy-4H-chromen-7-yl]methanesulfonamide]",almost kept unchanged,stable under a high humidity condition,0.54,0.25,0.21,0.18
"CS(=O)(=O)Nc1cc2occ(NC=O)c(=O)c2cc1Oc1ccccc1 [T-614γ, N-[3-(formylamino)-4-oxo-6-phenoxy-4H-chromen-7-yl]methanesulfonamide]",almost kept unchanged,stable under a high humidity condition,0.28,0.33,0.52,0.65
"CS(=O)(=O)Nc1cc2occ(NC=O)c(=O)c2cc1Oc1ccccc1 [T-614α, N-[3-(formylamino)-4-oxo-6-phenoxy-4H -chromen-7-yl]methanesulfonamide, reference compound]",increased with the rising of relative humidity,–,0.30,1.29,2.88,3.62
